Results published in patent US20100204135A1, “USE OF LVV-HEMORPHIN-6 AND OPTIONALLY AF12198 AS THERAPEUTIC AGENT(S)” (priority 2007, published 2010).
Where no end group is shown, it is not given here.

Tests used:
HCMV strain AD169 = experiment: HCMV plaque formation assay in MRC-5 cells; format: cell-based; conditions: for inhibition of HCMV plaque formation as compared to the virus control experiment: 10 micrograms per ml, 7-10 days
HUVEC = experiment: Endothelial tube formation assay; format: cell-based, human; conditions: 10 micrograms per ml, 20 hours
Text: Positive control was vehicle only.

Interleukin-2 (IL-2) = experiment: Th1/Th2 cytokine profiling assay, IL-2; format: cell-based, mouse; conditions: 10 micrograms per ml; Ovalbumin-restimulated Balb/c spleen cells, 72 hours
Procedure: (§1) The Balb/c mice (originated in 1923, it is a popular strain and is used in many different research disciplines. Also classified as an inbred from the production of 20 size) were immunized on Days 1, 15, and 29 with Ovalbumin (Ovalbumin is the main protein found in egg white, commonly used to stimulate an immunological reaction in test animals) in PBS (5 micrograms/injection). On day 50, spleens of the mice were harvested (3 weeks after last boost with Ovalbumin). Cells were cultured (2×10^5/well in triplicate) and incubated with culture medium or test peptides—10 micrograms per ml—for 30 min. Thereafter, additional Ovalbumin was added to the cells at 10 micrograms/ml for in vitro restimulation of the cells. 72 hours later, cell supernatants were harvested and assayed using the Becton Dickinson Mouse Th1/Th2 Cytokine CBA Kit. This kit can be used to measure Interleukin-2 (IL-2), Interleukin-4 (IL-4), Interleukin-5 (IL-5), Interferon-γ (IFN-γ), and Tumor Necrosis Factor-a (TNF-a) protein levels in a single sample. The kit performance has been optimized for analysis of physiologically relevant concentrations (μg/ml levels) of specific cytokine proteins in tissue culture supernatants and serum samples.

[1] = system: Tumor Necrosis Factor-a (TNF-a); experiment: Th1/Th2 cytokine profiling assay, TNF-alpha; format: cell-based, mouse; conditions: 10 micrograms per ml; Ovalbumin-restimulated Balb/c spleen cells, 72 hours
Procedure: as §1

Human A549 cells = experiment: Apoptosis prevention assay (Annexin-5, C2 ceramide); format: cell-based; conditions: 10 micrograms per ml; A549 pretreated 30 min, then C2 ceramide
Interferon-γ (IFN-γ) = experiment: Th1/Th2 cytokine profiling assay, IFN-γ; format: cell-based, mouse; conditions: 10 micrograms per ml; Ovalbumin-restimulated Balb/c spleen cells, 72 hours
Procedure: as §1

[2] = system: hepatitis B virus (HBV) ayw strain; experiment: HBV experimental assay system, HepG2-2.2.15, TaqMan PCR of secreted HBV DNA; format: cell-based; conditions: 10 micrograms per ml; HepG2-2.2.15, six days, HBV DNA in supernatant
Interleukin-5 (IL-5) = experiment: Th1/Th2 cytokine profiling assay, IL-5; format: cell-based, mouse; conditions: 10 micrograms per ml; Ovalbumin-restimulated Balb/c spleen cells, 72 hours
Procedure: as §1

Interleukin-4 (IL-4) = experiment: Th1/Th2 cytokine profiling assay, IL-4; format: cell-based, mouse; conditions: 10 micrograms per ml; Ovalbumin-restimulated Balb/c spleen cells, 72 hours
Procedure: as §1

[3] = system: Primary Human endothelial cells (HUVEC); experiment: Endothelial cell migration assay; format: cell-based; conditions: 10 micrograms per ml, 22 hours
Procedure: Thereafter, designated concentration of testing peptides—10 micrograms per ml—was added in duplicate wells.

| Compound | antiviral activity of positive control compound (HCMV strain AD169; positive control, HCMV AD169) | inhibition of HCMV plaque formation as compared to the virus control experiment (HCMV strain AD169) | increase of the tube formation of human endothelial cells (HUVEC) [%] | increase of the production of IL-2 in murine spleen cells (Interleukin-2 (IL-2)) [%] | change of the production of TNF-alpha in murine spleen cells [1] | effect on the ceramide-induced apoptosis on human lung cells (Human A549 cells) | decrease of the production of IFN-γ in murine spleen cells (Interferon-γ (IFN-γ)) | inhibition of HBV replication as compared to the virus control infection [2] [%] | decrease of the production of IL-5 in murine spleen cells (Interleukin-5 (IL-5)) [%] | change of the production of IL-4 in murine spleen cells (Interleukin-4 (IL-4)) | inhibition of the migration of human endothelial cells [3] [%] |
| --- | --- | --- | --- | --- | --- | --- | --- | --- | --- | --- | --- |
| Nc1nc(O)c2ncn(COC(CO)CO)c2n1 [Ganciclovir, reference compound] | expected levels of antiviral activity |  |  |  |  |  |  |  |  |  |  |
| Phe-Glu-Trp-Thr-Pro-Gly-Tyr-Trp-Gln-Pro-Tyr-Ala-Leu-Pro-Leu-OH (FEWTPGYWQPYALPL-OH) [Peptide 2] |  | did not inhibit | 4 | 68.1 | did not significantly change | 28.6% | 37.5% | 26.3 | 38.8 | did not significantly change |  |
| Leu-Val-Val-Tyr-Pro-Trp-Thr-Gln-Arg-OH (LVVYPWTQR-OH) [Peptide 1] |  | did not inhibit | 2 | 54.3 | did not significantly change | did not reduce | did not significantly change | 24.3 | 33 | did not significantly change | 4 |
